# How the values were obtained:
# [1] = Acidity determined spectrometrically; format: ADME
# [2] = Partition coefficient (logP); format: physicochemical; details: octanol/water
# [3] = Acidity of compound was determined; format: ADME
SMILES,pKa [1],logP [2],pKa [3]
NCC(O)c1ccc2c(c1)NS(=O)(=O)N2 (stereo unspecified),4.68,,
CNCC(O)c1ccc2c(c1)NS(=O)(=O)N2 (stereo unspecified),4.67,,
O=S(=O)(CF)Nc1ccccc1,,1.35,7.53
CS(=O)(=O)Nc1ccccc1,,0.95,8.85
CC(C)NCC(O)c1ccc2c(c1)NS(=O)(=O)N2 (stereo unspecified),4.68,,
O=S1(=O)Nc2ccccc2N1,,1.12,5.26
CC(C)NCC(O)c1ccc(NS(=O)(=O)C(F)(F)F)cc1 (stereo unspecified),3.65,,
CC(C)(C)NCC(O)c1ccc2c(c1)NS(=O)(=O)N2 (stereo unspecified),4.7,,
CC(C)NCC(O)c1cccc(NS(=O)(=O)C(F)(F)F)c1 (stereo unspecified),3.63,,
O=S(=O)(Nc1ccccc1)C(F)(F)F,,3.03,4.45
Oc1cccc(O)c1 [RESORCINOL],,0.85,9.5
